Like-named read-outs stand apart in the source and are kept apart here.

Data set [1] is described as follows: LD50 in mice after ip injection. The class given is in vivo.
Another data set concerns tubulin protein. As to the kind of experiment: Tubulin binding in vitro.
For data set [2] the following is noted: ip injection, data from Brossi et al., J. Med. Chem., 26:1365 (1983); cited from earlier work.

Turning to `CCOC(=O)N[C@H]1CCc2cc(OC)c(OC)c(OC)c2-c2ccc(SC)c(=O)cc21` [Et H SMe], the “LD50 in Mice after ip inj” value in data set [1] is given as 77.1 mg/kg. Besides, the “Tubulin Binding in vitro” value with tubulin protein is 96.
Turning to `COc1cc2c(c(OC)c1OC)-c1ccc(OC)c(=O)cc1[C@@H](NC(C)=O)CC2` [Colchicine, colchicine], in data set [2], the “LD50 in Mice after ip inj” value is 3.0 mg/kg.
Regarding `COc1cc2c(c(OC)c1OC)-c1ccc(SC)c(=O)cc1[C@@H](NC(=O)Oc1ccccc1)CC2` [Ph H SMe, N-Phenoxycarbonyl-deacetylthiocolchicine], the LD50 in data set [1] (mouse, in vivo, read-out: LD50 in Mice after ip inj) was 50 mg/kg.

One may read the LD50 as the dose at which mortality reaches 50%.

These data come from patent US4533675A (priority 1984, dated 1985).
